Assay results reported in US20180010188A1, “METHOD FOR DETECTING NONSENSE-MEDIATED RNA DECAY” (The Regents of the University of California, priority 2016, published 2018).

Tests used:
Perk transcripts = assay: Perk transcript levels by RT-qPCR; type: cell-based, mouse; conditions: thapsigargin in control siRNA-pretreated cells
Method: Two independent siRNAs reduced the endogenous Perk transcripts to around 20% (FIG. 4A).
Neuro-2a (N2a) cells were maintained in N2a complete media consisting of L-glutamine-free Dulbecco's modified Eagle's medium (DMEM), 10% FBS and 1× GlutaMAX at 37° C. Thapsigargin (VWR, cat. no. 89161-410), ionomycin (Fisher Scientific, cat. no. AG-CN2-0416-M001) and ouabain octahydrate (Fisher Scientific, cat. no. 80055-364) were dissolved in DMSO and stored at −80° C. For the application of these chemicals, 750,000 cells were plated on 35 mm BioLite TC plates and incubated with 2 ml of N2a complete media overnight before treatment with the drugs at the indicated concentrations. The cells were collected at 5 hours post-treatment unless otherwise specified. The PERK inhibitor GSK2606414 (Thermo Fisher, cat. no. 501016108) was dissolved in DMSO and stored at −20° C. N2a cells were incubated with GSK2606414 for 1 hour before thapsigargin treatment. For L-glutamine deprivation, 750,000 N2a cells were plated overnight and switched to L-glutamine-free DMEM with 10% FBS. […]
Trizol (Life Technologies, cat. no. 15596-018) was directly added to the cells or mouse brain tissues to extract total RNA following the Trizol Reagent standard protocol. […] RNA concentrations were measured using a Nanodrop 2000c (Thermo Fisher). […] Relative expression (fold changes) was calculated using the ΔΔCt method. […]

[1] = tested on: cryptic isoforms of A230046K03Rik, Mib1 and Usp15; assay: Quantitative analysis of TDP-43-repressed cryptic exon splicing; type: cell-based, mouse
From the text: To investigate the possible compounding effect of ER stress on TDP-43-mediated cryptic isoforms, we examined the expression of TDP-43-repressed cryptic exons with and without thapsigargin treatment. We designed specific PCR primers flanking the previously reported cryptic exons of A230046K03Rik, Mib1 and Usp15 and performed capillary electrophoresis to measure the ratios of the cryptic isoforms to the normal isoforms. The splicing of cryptic exons was not detected in cells treated with control siRNA or DMSO but was drastically boosted by RNAi-mediated depletion of Tdp-43 (FIGS. 5A-E).
Neuro-2a (N2a) cells were maintained in N2a complete media consisting of L-glutamine-free Dulbecco's modified Eagle's medium (DMEM), 10% FBS and 1× GlutaMAX at 37° C. Thapsigargin (VWR, cat. no. 89161-410), ionomycin (Fisher Scientific, cat. no. AG-CN2-0416-M001) and ouabain octahydrate (Fisher Scientific, cat. no. 80055-364) were dissolved in DMSO and stored at −80° C. […]
We optimized the PCR cycle numbers for Psd-95 (28 cycles), A230046K03Rik, Mib1 and Usp15 and eventually used 29 cycles for relative quantification of the transcript isoforms. […] The molar abundance (nM) of each isoform was quantified using QIAxcel Screengel software v1.4. Splicing of the cryptic exon was determined using the following formula. […]

For `C/C=C(/C)C(=O)O[C@H]1C(C)=C2[C@H]([C@@H]1OC(=O)CCCCCCC)[C@@](C)(OC(C)=O)C[C@H](OC(=O)CCC)[C@@]1(O)[C@H]2OC(=O)[C@@]1(C)O` [thapsigargin], the Perk transcript levels (Perk transcripts) was “increased”, the “level of cryptic isoforms in mock-transfected or control siRNA-transfected cells” value ([1]; 0.2 μM thapsigargin) was “no effect” and the “level of cryptic isoforms in TDP-43-deficient cells” value ([1]; 0.2 μM thapsigargin after siTdp43) was “further increased”.
